Assays:
[1] = test system: DNFB-induced ear swelling; assay: Contact hypersensitivity (CHS) assay, DNFB ear swelling; format: in vivo, Balb/C mice; conditions: 1 mg/kg liposomal IV
Experimental: Balb/C mice (5–8 mice per group) were tested using the delayed skin photosensitivity assay also called the contact hypersensitivity (CHS) assay. The mice were painted in the flank with the sensitizing agent dinitrofluorobenzene (DNFB) and 5 days later, one ear is challenged with DNFB, while the other serves as a control. The swelling is an indicator of immune response. […] The swelling in both cases was only approximately 60% of the that shown in mice without treatment.

[2] = test system: CD54 (ICAM-1); assay: Low-dose PDT, expression of cell surface antigens by peritoneal macrophages: CD54; format: cell-based, murine; conditions: BPD-MA 2.5 ng/ml, B-EA6 0.5 ng/ml; 690 nm LED 5 J/cm^2, 24 hr later
Experimental: (§1) In an additional assay to determine immunomodulation, murine peritoneal macrophages were isolated, purified and activated by recombinant interferon-γ (100 U/ml). […] Expression levels of MHC I, MHC II, CD54, CD80 and CD86 were determined 24 hr later using FITC conjugated antibodies and a cell sorter. The results are shown in Table 4 for B-EA6 at 0.5 ng/ml in comparison to similar experiments using BPD-MA at 2.5 ng/ml. The results in the table are given as a percent of expression as compared to cells treated with light only. As shown, BPD-MA and B-EA6 were both able to reduce expression of MHC II, but not the remaining surface markers. Thus, although B-EA6 has advantageous pharmacokinetics, it retains the immunomodulatory activity of BPD-MA and other compounds of this group.

[3] = test system: MHC Class I; assay: Low-dose PDT, expression of cell surface antigens by peritoneal macrophages: MHC Class I; format: cell-based, murine; conditions: BPD-MA 2.5 ng/ml, B-EA6 0.5 ng/ml; 690 nm LED 5 J/cm^2, 24 hr later
Experimental: as §1

[4] = test system: arterioles and venules; assay: Mouse cremaster muscle model, effect on microvasculature; format: in vivo; conditions: 2 mg/kg IV, 25 J/cm^2 per 5 min
Experimental: The mouse cremaster muscle model was used. B-EA6 was administered intravenously at 2 mg/kg and starting at 5 and 15 min postinjection, surgically exposed arterioles and venules were irradiated with light at an intensity of 25 J/cm^2 per 5 min beginning at 5 min and 15 min after injection of the B-EA6. The vessels were measured as red blood column diameter as a percentage of controls.

[5] = test system: adjuvant-enhanced arthritis; assay: Arthritis model, adjuvant-enhanced, PDT on days 0, 10, 20; format: in vivo, MRL-Ipr mice; conditions: 0.5 mg/kg liposomal IV, red light 80 J/cm^2 at 1 hr
Experimental: MRL-Ipr mice spontaneously develop arthritis; this was enhanced by intradermal injection of Freund's Adjuvant. Various numbers of MRL-Ipr mice were treated with PDT on days 0, 10, and 20 after injection of the adjuvant. […] The mice were observed and symptoms scored every 5 days for 30 days. The results are shown in FIG. 6 in comparison to mice similarly treated with BPD-MA and BPD-MB.

[6] = In vivo pharmacokinetics, drug content of tissues by fluorescence in tissue extracts; design: species or system DBA/2 mice; conditions: 4 mg/kg intravenous
Experimental: Either BPD-MA or B-EA6 was administered by intravenous injection into DBA/2 mice at a dose of 4 mg/kg using 3 mice per time point. The drug content of plasma, skin, liver and kidney was determined by fluorescence in the tissue extracts.

[7] = test system: L1210 cells; assay: Uptake of photosensitizer by L1210 cells (fluorescence of cell lysates); format: cell-based, murine; conditions: 3 μg/ml, 10% fetal bovine serum
Experimental: BPD-MA or B-EA6 were incubated at 3 μg/ml in the presence of 10% fetal bovine serum with 10^7/mL of L1210 cells, a murine leukemia cell line. Intracellular content of the photosensitizers was measured by fluorescence of cell lysates at various times. […] The time course of uptake is shown in FIG. 2 as a percentage of cell content at 60 min by which time uptake had reached a maximum in both cases. As shown, B-EA6 is taken up more rapidly and reaches […] of its maximum concentration after only 5 min and reached its maximum uptake within 15 min.

[8] = test system: L1210 cells; assay: LD50 / photocytotoxicity on L1210 cells, 9 J/cm^2 broad spectrum light, MTT assay; format: cell-based, murine
Experimental: Either B-EA6 or BPD-MA was incubated for 1 hr with L1210 cells at a range of concentrations and exposed to 9 J/cm^2 broad spectrum light. This determination was made in the absence of serum and in the presence of 10% serum.
The ability of B-EA6 to exert a cytotoxic effect on L1210 cells in vitro was further tested by incubating the cells with B-EA6 at various concentrations for 1 hr in the absence of serum. After excess drug was removed, the cells were exposed to 9 J/cm^2 broad spectrum light (380–750 nm) and cell survival was determined by the MTT assay (Mosmann, T. et al. J Immunol Meth (1983) 65:55–63). The percentage of killed cells was calculated in reference to survival of cells exposed to light only.

[9] = test system: MHC Class II; assay: Low-dose PDT, expression of cell surface antigens by peritoneal macrophages: MHC Class II; format: cell-based, murine; conditions: BPD-MA 2.5 ng/ml, B-EA6 0.5 ng/ml; 690 nm LED 5 J/cm^2, 24 hr later
Experimental: as §1

[10] = test system: M1 rhabdomyosarcoma tumors; assay: PDT bioassay in mouse tumor model, tumor-free on day 7; format: in vivo, DBA/2 mice
Experimental: The pharmacokinetics were also determined using an in vivo mouse tumor model. Groups of 10 DBA/2 mice containing M1 rhabdomyosarcoma tumors were injected intravenously with a liposomal formulation of BPD-MA at various dosages of 0.75–1.5 mg/kg. The tumors were irradiated with 690 nm laser light at 50 or 150 J/cm^2 at various times after injection.

[11] = test system: L1210 cells; assay: Release of photosensitizer from preloaded L1210 cells; format: cell-based, murine; conditions: preloaded at 3 μg/ml for 1 hr, drug-free medium with 10% fetal bovine serum; compared with BPD-MA
Experimental: The kinetics of release of these drugs from L1210 cells was measured by preloading the cells at 3 μg/ml for 1 hr and then placing the cells in drug-free medium containing 10% fetal bovine serum. Remaining intracellular drug content was measured at various time points by lysing the cells and measuring fluorescence.

[12] = test system: M1 (rhabdomyosarcoma) tumor; assay: Tumor selectivity of PDT in mice bearing subcutaneous M1 tumor; format: in vivo, DBA/2 mice; conditions: 0.75 mg/kg liposomal IV, 15 min, 50 J/cm^2 690 nm
Experimental: Mice were administered 0.75 mg/kg of B-EA6 in a liposomal formulation intravenously. After 15 min, a 1 cm area which included a 5 mm diameter tumor was exposed to 50 J/cm^2 of 70 mW light of 690 nm wavelength from an argon-pumped dye laser.

[13] = test system: CD86 (B7-2); assay: Low-dose PDT, expression of cell surface antigens by peritoneal macrophages: CD86; format: cell-based, murine; conditions: BPD-MA 2.5 ng/ml, B-EA6 0.5 ng/ml; 690 nm LED 5 J/cm^2, 24 hr later
Experimental: as §1

[14] = test system: CD80 (B7-1); assay: Low-dose PDT, expression of cell surface antigens by peritoneal macrophages: CD80; format: cell-based, murine; conditions: BPD-MA 2.5 ng/ml, B-EA6 0.5 ng/ml; 690 nm LED 5 J/cm^2, 24 hr later
Experimental: as §1

[15] = test system: splenocytes; conditions: 3 μg/ml, after an hour of incubation
Experimental: The ability of L1210 cells to accumulate B-EA6 was compared to the ability of splenocytes to do so. B-EA6 at 3 μg/ml was incubated with each cell type and the cell content of B-EA6 was determined by fluorescence in cell lysates.

C=Cc1c(C)c2cc3nc(cc4[nH]c(cc5nc(cc1[nH]2)C1(C)C5=CC=C(C(=O)OC)C1C(=O)OC)c(C)c4CCC(=O)OCCO)C(CCC(=O)OCCO)=C3C (centres unmarked) [B-EA6]
ear swelling relative to mice without treatment ([1]; 15 J/cm^2 whole body light): approximately 60%
ear swelling relative to mice without treatment ([1]; ambient light): approximately 60%
CD54 (ICAM-1) expression, percent of cells treated with light only [2]: 106.9%
MHC Class I expression, percent of cells treated with light only [3]: 100.4%
vessel closure ([4]; irradiation started after 15 min): permanent closure
vessel closure ([4]; irradiation started at 5 min): transient vessel closure
prevention of arthritis symptoms (incidence of clinical symptoms, bimaleolar ankle width) [5]: effective in preventing the sequellae of adjuvant injection
accumulation in skin ([6]; first 3 hr): does not
T½ (15 min-3 hours) Kidney ([6]; kidney): 48 min
T½ (15 min-3 hours) Liver ([6]; liver): 36 min
T½ (15 min-3 hours) Muscle ([6]; muscle): 666 min
T½ (15 min-3 hours) Plasma ([6]; plasma): 36 min
accumulation in plasma, liver or kidney ([6]; relative to 15 min postinjection): neither BPD-MA nor B-EA6 accumulated
T½ (15 min-3 hours) Skin ([6]; skin): 114 min
T½ (15 min-3 hours) Spleen ([6]; spleen): 48 min
time to maximum uptake [7]: ≤ 15 min
maximum concentration reached (intracellular content) ([7]; 10^7/mL L1210 cells): 145.9 ng/10^6 cells
percentage of cells that did not survive ([8]; 15 ng/ml, no serum, 9 J/cm^2 light (380–750 nm), vs light only): ~100%
LD50, 10% serum ([8]; L1210 cells, 1 hr incubation, 9 J/cm^2 broad spectrum light, 10% serum): 19.7 ng/mL
percentage of killed cells ([8]; approximately 7 ng/ml, no serum, 9 J/cm^2 light (380–750 nm), vs light only): 80%
MHC Class II expression, percent of cells treated with light only [9]: 71.8%
Percent Tumor Free on Day 7 ([10]; 0.75 mg/kg liposomal IV, light 15 min post IV, 50 J/cm^2 690 nm): 50%
Percent Tumor Free on Day 7 ([10]; 0.75 mg/kg liposomal IV, light 30 min post IV, 50 J/cm^2 690 nm): 0%
Percent Tumor Free on Day 7 ([10]; 1.0 mg/kg liposomal IV, light 15 min post IV, 50 J/cm^2 690 nm): 90%
Percent Tumor Free on Day 7 ([10]; 1.0 mg/kg liposomal IV, light 30 min post IV, 50 J/cm^2 690 nm): 0%
Percent Tumor Free on Day 7 ([10]; 1.5 mg/kg liposomal IV, light 180 min post IV, 150 J/cm^2 690 nm): 0%
initial release from cells [11]: much more rapid
effect of PDT on surrounding normal skin [12]: did not affect the surrounding normal skin
effect of PDT on tumor [12]: effectively eliminated the tumor
CD86 (B7-2) expression, percent of cells treated with light only [13]: 92.2%
CD80 (B7-1) expression, percent of cells treated with light only [14]: 102.3%
cell content of B-EA6 accumulated [15]: less than 20 ng/10^6 cells

Reference: patent US7122569B2, “Ethylene glycol esters as photoactive agents” (priority 1997, dated 2006)
